# Source: ChEMBL document CHEMBL1687927, “Design and optimization of potent and orally bioavailable tetrahydronaphthalene Raf inhibitors” (J Med Chem, 2011)
# Biological target: T1, Serine/threonine-protein kinase B-raf (Homo sapiens, UniProt P15056, V600E)
# Assay: Inhibition of raf kinase in human A375 cells assessed as decrease in MEK-mediated ERK phosphorylation after 3 hrs using 3,3',5,5'-tetramethylbenzidine liquid substrate system
# Type: cell-based
# Conditions: a-375
# T1 sequence (P15056 2-766 V600E limits assumed): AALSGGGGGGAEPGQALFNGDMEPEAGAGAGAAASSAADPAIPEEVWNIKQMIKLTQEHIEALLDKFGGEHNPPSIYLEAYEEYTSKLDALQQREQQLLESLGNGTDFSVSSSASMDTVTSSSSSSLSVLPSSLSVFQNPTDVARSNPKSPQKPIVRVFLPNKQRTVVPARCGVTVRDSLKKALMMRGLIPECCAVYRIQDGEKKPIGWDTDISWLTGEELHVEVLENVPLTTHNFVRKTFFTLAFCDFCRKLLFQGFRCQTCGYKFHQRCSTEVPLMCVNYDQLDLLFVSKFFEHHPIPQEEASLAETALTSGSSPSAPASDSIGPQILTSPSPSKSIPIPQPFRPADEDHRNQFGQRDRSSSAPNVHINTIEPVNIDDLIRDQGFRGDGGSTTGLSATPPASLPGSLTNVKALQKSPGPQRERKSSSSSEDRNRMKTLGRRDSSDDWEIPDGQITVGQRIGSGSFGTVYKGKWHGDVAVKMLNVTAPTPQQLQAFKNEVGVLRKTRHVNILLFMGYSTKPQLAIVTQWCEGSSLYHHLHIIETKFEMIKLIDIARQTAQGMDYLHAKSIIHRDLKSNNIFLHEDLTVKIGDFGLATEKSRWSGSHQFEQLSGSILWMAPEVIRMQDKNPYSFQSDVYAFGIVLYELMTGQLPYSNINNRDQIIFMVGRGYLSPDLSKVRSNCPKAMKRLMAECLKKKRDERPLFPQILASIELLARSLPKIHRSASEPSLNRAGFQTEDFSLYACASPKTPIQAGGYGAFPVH
row,SMILES,IC50
1,CNC(=O)c1cc(Oc2ccc3c(c2)CC(C(=O)Nc2cc(CN)cc(C(F)(F)F)c2)CC3)ccn1 (configuration not stated),1400 nM
2,CN(C)Cc1cc(C(=O)N[C@H]2CCc3ccc(Oc4ccnc(NC(=O)C5CC5)c4)cc3C2)cc(C(F)(F)F)c1,1100 nM
3,NCc1cc(NC(=O)[C@H]2CCc3ccc(Oc4ccnc(NC(=O)C5CC5)c4)cc3C2)cc(C(F)(F)F)c1,130 nM
4,CNC(=O)c1cc(Oc2cccc(CCC(=O)Nc3ccc(Cl)c(C(F)(F)F)c3)c2)ccn1,> 25000 nM
5,CNC(=O)c1cc(Oc2ccc(CCC(=O)Nc3ccc(Cl)c(C(F)(F)F)c3)cc2)ccn1,> 25000 nM

# Now from value to molecule:
row,IC50,SMILES
1,5000 nM,CNC(=O)c1cc(Oc2ccc3c(c2)CC(C(=O)Nc2ccc(CN)c(C(F)(F)F)c2)CC3)ccn1 (configuration not stated)
2,780 nM,NCc1cc(NC(=O)[C@@H]2CCc3ccc(Oc4ccnc(NC(=O)C5CC5)c4)cc3C2)cc(C(F)(F)F)c1
3,79 nM,CC(C)(N)c1cc(NC(=O)[C@H]2CCc3ccc(Oc4ccnc5c4CCC(=O)N5)cc3C2)cc(C(F)(F)F)c1

# Biological target: T1, Serine/threonine-protein kinase B-raf
# Conditions: not given
row,SMILES,IC50
1,CNC(=O)c1cc(Oc2ccc3c(c2)CC(C(=O)Nc2cc(CN)cc(C(F)(F)F)c2)CC3)ccn1 (configuration not stated),20 nM
2,CN(C)Cc1cc(C(=O)N[C@H]2CCc3ccc(Oc4ccnc(NC(=O)C5CC5)c4)cc3C2)cc(C(F)(F)F)c1,3.2 nM
3,NCc1cc(NC(=O)[C@H]2CCc3ccc(Oc4ccnc(NC(=O)C5CC5)c4)cc3C2)cc(C(F)(F)F)c1,5 nM
4,CNC(=O)c1cc(Oc2cccc(CCC(=O)Nc3ccc(Cl)c(C(F)(F)F)c3)c2)ccn1,47 nM
5,CNC(=O)c1cc(Oc2ccc(CCC(=O)Nc3ccc(Cl)c(C(F)(F)F)c3)cc2)ccn1,61 nM

# More lines, now with the values ahead:
row,IC50,SMILES
1,26 nM,CNC(=O)c1cc(Oc2ccc3c(c2)CC(C(=O)Nc2ccc(CN)c(C(F)(F)F)c2)CC3)ccn1 (configuration not stated)
2,6 nM,NCc1cc(NC(=O)[C@@H]2CCc3ccc(Oc4ccnc(NC(=O)C5CC5)c4)cc3C2)cc(C(F)(F)F)c1

# Biological target: RAF proto-oncogene serine/threonine-protein kinase (Homo sapiens, UniProt P04049)
# Sequence (P04049 whole entry): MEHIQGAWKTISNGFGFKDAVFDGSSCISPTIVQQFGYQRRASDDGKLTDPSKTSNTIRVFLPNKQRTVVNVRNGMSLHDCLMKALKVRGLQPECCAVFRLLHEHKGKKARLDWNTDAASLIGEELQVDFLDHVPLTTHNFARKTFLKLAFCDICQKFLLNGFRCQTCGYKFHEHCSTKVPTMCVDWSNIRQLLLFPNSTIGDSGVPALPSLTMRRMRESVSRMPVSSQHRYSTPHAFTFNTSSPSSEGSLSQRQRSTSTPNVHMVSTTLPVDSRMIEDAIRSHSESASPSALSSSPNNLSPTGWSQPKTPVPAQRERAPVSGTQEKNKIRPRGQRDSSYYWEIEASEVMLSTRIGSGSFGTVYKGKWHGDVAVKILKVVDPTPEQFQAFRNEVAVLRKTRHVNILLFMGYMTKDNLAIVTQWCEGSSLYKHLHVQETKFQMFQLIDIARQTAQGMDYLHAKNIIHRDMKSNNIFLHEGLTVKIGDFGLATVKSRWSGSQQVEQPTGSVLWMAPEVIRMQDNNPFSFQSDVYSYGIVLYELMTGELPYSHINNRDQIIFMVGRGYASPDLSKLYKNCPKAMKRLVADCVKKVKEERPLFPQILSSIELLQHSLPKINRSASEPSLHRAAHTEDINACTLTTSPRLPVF
# Assay: Inhibition of C-Raf assessed as reduction in [33P]ATP incorporation into biotinylated substrate peptide after 3 hrs by flash plate assay
# Conditions: not given
row,SMILES,IC50
1,CC(=O)Nc1cc(Oc2ccc3c(c2)C[C@@H](C(=O)Nc2cc(CN)cc(C(F)(F)F)c2)CC3)ccn1,6 nM
2,CNC(=O)c1cc(Oc2ccc3c(c2)CC(C(=O)Nc2cc(CN)cc(C(F)(F)F)c2)CC3)ccn1 (configuration not stated),11 nM
3,NCc1cc(NC(=O)[C@H]2CCc3ccc(Oc4ccnc(NC(=O)C5CC5)c4)cc3C2)cc(C(F)(F)F)c1,4.5 nM
4,CNC(=O)c1cc(Oc2cccc(CCC(=O)Nc3ccc(Cl)c(C(F)(F)F)c3)c2)ccn1,9 nM
5,CNC(=O)c1cc(Oc2ccc(CCC(=O)Nc3ccc(Cl)c(C(F)(F)F)c3)cc2)ccn1,10 nM

# Next, values leading:
row,IC50,SMILES
1,16 nM,CNC(=O)c1cc(Oc2ccc3c(c2)CC(C(=O)Nc2ccc(CN)c(C(F)(F)F)c2)CC3)ccn1 (configuration not stated)
2,6 nM,NCc1cc(NC(=O)[C@@H]2CCc3ccc(Oc4ccnc(NC(=O)C5CC5)c4)cc3C2)cc(C(F)(F)F)c1
